According to the Kinase Knowledgebase extract (Sharma et al. 2016):
Several values for one entry are separate records, joined by “and”; a condition that tells them apart may be missing. Identical values can stand only once. One block for each compound: values may come before it.

Experiments:
EGFR [1] = biological target: EGFR (UniProt P00533); settings: concentration not given here
EGFR (Hamster) = EGFR (Hamster) (UniProt P00533)
EGFR (mouse) = EGFR (mouse) (UniProt P00533)
EGFR [2] = biological target: EGFR (UniProt P00533); settings: cho.ir; for activation: concentration not given here
PIK3CA (human) = PIK3CA (human) (UniProt P42336); assay: Inhibition of PIK3CA Kinase Activity
PIK3CA (human), sequence (P42336 whole entry, looked up): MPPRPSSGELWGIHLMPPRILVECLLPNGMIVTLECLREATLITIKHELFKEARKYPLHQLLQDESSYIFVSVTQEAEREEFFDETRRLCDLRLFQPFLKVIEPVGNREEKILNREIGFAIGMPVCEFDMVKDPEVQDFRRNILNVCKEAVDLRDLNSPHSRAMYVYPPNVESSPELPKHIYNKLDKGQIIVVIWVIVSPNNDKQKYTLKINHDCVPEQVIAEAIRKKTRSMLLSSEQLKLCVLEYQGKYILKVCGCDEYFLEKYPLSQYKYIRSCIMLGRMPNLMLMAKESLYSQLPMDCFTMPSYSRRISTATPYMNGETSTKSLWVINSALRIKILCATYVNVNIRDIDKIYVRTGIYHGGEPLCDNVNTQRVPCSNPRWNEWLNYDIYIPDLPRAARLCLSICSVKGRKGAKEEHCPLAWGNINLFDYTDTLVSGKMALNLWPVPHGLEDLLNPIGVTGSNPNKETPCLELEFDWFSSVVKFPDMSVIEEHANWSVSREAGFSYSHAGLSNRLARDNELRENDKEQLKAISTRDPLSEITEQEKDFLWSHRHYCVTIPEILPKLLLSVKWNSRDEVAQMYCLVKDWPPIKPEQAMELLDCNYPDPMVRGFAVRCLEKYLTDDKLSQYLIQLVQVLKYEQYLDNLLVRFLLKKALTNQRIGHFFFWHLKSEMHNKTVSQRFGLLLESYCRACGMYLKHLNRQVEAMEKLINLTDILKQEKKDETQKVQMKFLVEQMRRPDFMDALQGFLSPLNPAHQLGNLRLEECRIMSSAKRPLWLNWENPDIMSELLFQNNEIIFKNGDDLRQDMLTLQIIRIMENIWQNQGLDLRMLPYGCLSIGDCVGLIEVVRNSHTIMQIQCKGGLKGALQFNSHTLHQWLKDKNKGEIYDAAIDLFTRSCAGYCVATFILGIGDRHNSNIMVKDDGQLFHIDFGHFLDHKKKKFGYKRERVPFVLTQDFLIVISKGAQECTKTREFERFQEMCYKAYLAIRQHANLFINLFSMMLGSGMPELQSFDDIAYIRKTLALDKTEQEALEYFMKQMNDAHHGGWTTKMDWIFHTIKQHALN

PIK3CB (Human) = PIK3CB (Human) (UniProt P42338); assay: Inhibition of PIK3CB Kinase Activity
PIK3CB (Human), sequence (P42338 whole entry, looked up): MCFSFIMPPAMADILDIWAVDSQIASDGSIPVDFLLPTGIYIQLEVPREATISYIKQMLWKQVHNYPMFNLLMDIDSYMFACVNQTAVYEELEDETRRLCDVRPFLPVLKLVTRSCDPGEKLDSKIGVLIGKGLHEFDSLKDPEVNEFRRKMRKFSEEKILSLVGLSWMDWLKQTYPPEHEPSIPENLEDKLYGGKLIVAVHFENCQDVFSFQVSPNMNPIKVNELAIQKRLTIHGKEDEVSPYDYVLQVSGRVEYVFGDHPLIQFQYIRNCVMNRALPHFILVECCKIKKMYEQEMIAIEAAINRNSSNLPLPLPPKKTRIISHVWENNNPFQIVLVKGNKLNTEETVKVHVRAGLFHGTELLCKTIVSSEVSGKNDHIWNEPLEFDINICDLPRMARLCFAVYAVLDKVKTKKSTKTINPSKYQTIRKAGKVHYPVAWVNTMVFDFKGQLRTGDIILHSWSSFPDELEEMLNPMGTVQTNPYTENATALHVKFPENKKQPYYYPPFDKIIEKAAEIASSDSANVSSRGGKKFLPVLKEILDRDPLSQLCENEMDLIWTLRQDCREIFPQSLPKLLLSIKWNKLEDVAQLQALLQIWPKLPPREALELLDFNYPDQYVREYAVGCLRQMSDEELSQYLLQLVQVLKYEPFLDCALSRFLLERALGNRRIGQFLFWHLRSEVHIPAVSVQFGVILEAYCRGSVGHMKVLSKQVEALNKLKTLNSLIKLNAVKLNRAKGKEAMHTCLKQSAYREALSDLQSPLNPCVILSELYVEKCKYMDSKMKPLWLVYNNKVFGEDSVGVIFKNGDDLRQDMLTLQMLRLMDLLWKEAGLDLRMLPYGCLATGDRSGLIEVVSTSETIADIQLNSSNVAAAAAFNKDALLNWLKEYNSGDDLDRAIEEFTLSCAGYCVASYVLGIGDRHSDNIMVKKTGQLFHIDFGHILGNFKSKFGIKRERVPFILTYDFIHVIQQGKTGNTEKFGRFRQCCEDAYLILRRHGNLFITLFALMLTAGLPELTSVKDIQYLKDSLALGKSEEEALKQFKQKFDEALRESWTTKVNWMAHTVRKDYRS

ROCK2 (human) = ROCK2 (human) (UniProt O75116)
MAPK14 [3] = biological target: MAPK14 (UniProt Q16539); assay: Enzyme Assay
MAPK14, sequence (Q16539 whole entry, looked up): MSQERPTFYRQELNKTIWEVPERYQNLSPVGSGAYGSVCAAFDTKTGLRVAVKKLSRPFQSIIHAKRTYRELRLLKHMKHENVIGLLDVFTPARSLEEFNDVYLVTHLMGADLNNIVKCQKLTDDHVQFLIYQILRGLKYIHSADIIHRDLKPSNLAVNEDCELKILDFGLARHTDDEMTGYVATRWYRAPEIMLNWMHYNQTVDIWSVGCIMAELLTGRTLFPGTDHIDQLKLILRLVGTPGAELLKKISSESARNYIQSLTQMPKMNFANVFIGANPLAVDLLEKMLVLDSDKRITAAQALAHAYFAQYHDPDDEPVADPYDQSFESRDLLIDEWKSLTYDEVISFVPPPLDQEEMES

PIK3CD (Human) = PIK3CD (Human) (UniProt O00329); assay: Inhibition of PIK3CD Kinase Activity
PIK3CD (Human), sequence (O00329 whole entry, looked up): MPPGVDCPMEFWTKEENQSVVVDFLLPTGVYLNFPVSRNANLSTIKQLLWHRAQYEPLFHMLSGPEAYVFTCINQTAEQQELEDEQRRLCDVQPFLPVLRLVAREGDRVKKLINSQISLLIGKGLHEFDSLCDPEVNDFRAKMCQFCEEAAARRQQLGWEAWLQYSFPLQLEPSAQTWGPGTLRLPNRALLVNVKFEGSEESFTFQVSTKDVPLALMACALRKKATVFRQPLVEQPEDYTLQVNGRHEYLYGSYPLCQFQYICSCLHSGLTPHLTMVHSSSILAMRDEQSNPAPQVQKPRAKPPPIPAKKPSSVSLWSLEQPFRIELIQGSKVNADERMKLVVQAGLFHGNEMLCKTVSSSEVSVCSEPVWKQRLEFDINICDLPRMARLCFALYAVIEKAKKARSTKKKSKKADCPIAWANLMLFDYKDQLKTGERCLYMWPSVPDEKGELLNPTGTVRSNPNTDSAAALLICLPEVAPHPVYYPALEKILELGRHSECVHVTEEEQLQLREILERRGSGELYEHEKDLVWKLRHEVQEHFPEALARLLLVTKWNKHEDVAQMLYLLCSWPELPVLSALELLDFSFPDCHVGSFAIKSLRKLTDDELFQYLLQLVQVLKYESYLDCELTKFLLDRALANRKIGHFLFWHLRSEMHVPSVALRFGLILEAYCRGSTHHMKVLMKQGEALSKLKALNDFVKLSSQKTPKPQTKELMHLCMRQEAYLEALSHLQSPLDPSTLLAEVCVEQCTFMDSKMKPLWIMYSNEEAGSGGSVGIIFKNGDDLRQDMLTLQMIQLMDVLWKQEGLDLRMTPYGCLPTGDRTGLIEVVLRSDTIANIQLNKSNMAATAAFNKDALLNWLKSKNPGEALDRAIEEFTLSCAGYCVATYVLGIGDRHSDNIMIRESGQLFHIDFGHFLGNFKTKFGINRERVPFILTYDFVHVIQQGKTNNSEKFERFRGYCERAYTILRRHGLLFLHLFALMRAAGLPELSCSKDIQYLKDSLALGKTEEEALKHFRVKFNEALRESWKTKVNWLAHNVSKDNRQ

PIK3CG (human) = PIK3CG (human) (UniProt P48736); assay: Inhibition of PIK3CG Kinase Activity
PIK3CG (human), sequence (P48736 whole entry, looked up): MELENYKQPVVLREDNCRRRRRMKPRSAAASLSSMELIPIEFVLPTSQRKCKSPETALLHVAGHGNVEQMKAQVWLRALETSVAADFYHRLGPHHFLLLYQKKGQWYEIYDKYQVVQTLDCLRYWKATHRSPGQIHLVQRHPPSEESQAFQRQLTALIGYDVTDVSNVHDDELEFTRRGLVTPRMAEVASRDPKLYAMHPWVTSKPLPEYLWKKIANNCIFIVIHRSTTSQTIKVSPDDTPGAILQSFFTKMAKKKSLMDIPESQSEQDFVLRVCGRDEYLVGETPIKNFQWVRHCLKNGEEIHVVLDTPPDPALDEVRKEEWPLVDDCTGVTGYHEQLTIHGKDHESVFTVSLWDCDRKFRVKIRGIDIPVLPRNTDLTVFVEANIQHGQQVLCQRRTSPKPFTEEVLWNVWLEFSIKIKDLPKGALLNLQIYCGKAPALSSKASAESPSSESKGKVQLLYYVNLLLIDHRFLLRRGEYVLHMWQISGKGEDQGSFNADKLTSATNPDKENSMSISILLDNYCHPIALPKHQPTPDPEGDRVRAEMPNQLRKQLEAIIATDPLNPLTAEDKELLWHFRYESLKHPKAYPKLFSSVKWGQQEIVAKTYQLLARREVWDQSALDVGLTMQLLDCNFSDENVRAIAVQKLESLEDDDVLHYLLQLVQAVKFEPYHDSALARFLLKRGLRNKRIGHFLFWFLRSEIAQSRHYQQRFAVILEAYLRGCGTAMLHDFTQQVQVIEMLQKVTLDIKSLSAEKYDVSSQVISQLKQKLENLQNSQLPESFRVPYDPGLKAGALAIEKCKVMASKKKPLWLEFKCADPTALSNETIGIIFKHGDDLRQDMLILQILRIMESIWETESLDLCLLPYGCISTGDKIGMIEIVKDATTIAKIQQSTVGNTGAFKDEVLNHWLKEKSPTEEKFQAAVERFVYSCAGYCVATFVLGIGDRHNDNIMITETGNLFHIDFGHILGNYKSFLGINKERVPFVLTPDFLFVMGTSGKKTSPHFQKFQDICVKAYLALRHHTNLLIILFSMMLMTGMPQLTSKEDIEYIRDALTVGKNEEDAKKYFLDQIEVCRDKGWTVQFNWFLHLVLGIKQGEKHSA

PIK3CG;PIK3CA (human) = PIK3CG;PIK3CA (human) (UniProt P48736); assay: Antiproliferation of PC3-MM2 Cells; settings: pc-3
PIK3CG;PIK3CA (human), sequence (P48736 whole entry, looked up): as above

MAPK14 [4] = biological target: MAPK14 (UniProt Q16539); assay: p38-alpha Kinase Inhibition
CDK2 (human) = CDK2 (human) (UniProt P24941); assay: Enzyme Assay
EGFR [5] = biological target: EGFR (UniProt P00533)
EGFR [6] = biological target: EGFR (UniProt P00533); remark: listed apart in the source
EGFR [7] = biological target: EGFR (UniProt P00533); remark: listed apart in the source

inhibition (EGFR [1]): > 50%
SMILES: CC1CC1C(=O)Nc1sc2c(Cl)c(O)ccc2c1C(N)=O (stereo unspecified)

IC50 (EGFR (Hamster)): > 10000 nM
SMILES: COC(=O)c1cc(N=Cc2cc(OC)ccc2OC)ccc1O

EC50 (EGFR [2]): 20000 nM
SMILES: O=C1C(O)=C(c2c[nH]c3ccccc23)C(=O)C(O)=C1c1ccccc1

IC50 (PIK3CA (human)): < 9.1 nM | IC50 (PIK3CB (Human)): 34 nM
SMILES: Cc1nc(N)nc2c1cc(-c1ccc(N)nc1)c(=O)n2[C@@H]1CCOC1

IC50 (EGFR (Hamster)): > 100000 nM
SMILES: COC(=O)c1cc(N=Cc2cccc(O)c2)ccc1O

IC50 (MAPK14 [3]): 190 nM
SMILES: Cc1cccc(C(=O)c2ccc(Nc3ccc(N)cc3)cc2Cl)c1

IC50 (ROCK2 (human)): 2 nM
SMILES: NC(Cc1cccc(Cl)c1)C(=O)Nc1ccc(-c2cn[nH]c2)cc1 (stereo unspecified)

EC50 (EGFR [2]): 15000 nM
SMILES: C=CC(C)(C)c1[nH]c2ccccc2c1C1=C(O)C(=O)C(c2c[nH]c3c(CC=C(C)C)cccc23)=C(O)C1=O

ID50 (EGFR (mouse)): 71 nM
SMILES: CCCCC[C@@H](Cc1ccc2c3c(c[nH]c13)C[C@@H](CO)NC(=O)[C@H](C(C)C)N2C)NC(=O)c1ccc(N=[N+]=[N-])cc1

IC50 (PIK3CG;PIK3CA (human)): 2190 nM
SMILES: COc1ccc2c(c1)c(/C=C1\Oc3cc(O)cc(O)c3C1=O)c1n2CCNC1

activation (EGFR [2]): < 5%
SMILES: O=C1C(O)=C(c2coc3ccccc23)C(=O)C(O)=C1c1ccccc1

IC50 (MAPK14 [4]): 243 nM
SMILES: O=C(c1ccc2[nH]c3c(c2c1)CCNC3)N1CCC(Cc2ccc(F)cc2)CC1

activation (EGFR [2]): < 5%
SMILES: Cn1cc(C2=C(O)C(=O)C(c3ccccc3)=C(O)C2=O)c2ccccc21

IC50 (PIK3CG;PIK3CA (human)): 5630 nM
SMILES: COc1ccc2c(c1)c(/C=C1\Oc3cc(O)cc(O)c3C1=O)c1n2CCOC1=O

IC50 (PIK3CA (human)): 45 nM | IC50 (PIK3CD (Human)): 740 nM | IC50 (PIK3CG (human)): 1590 nM | IC50 (PIK3CB (Human)): 127 nM
SMILES: CCN(CC)c1ncc2c(n1)-c1sc(NC(=O)N3CCC[C@@]3(Cc3ccccc3)C(N)=O)nc1CC2

IC50 (CDK2 (human)): 120 nM
SMILES: CC[C@H](Nc1nc(NCc2cccc(F)c2)c2ncn(C(C)C)c2n1)[C@@H](C)O

IC50 (EGFR [6]): > 10000 nM
SMILES: CN(C)CCCn1nc(C2=C(c3cn(-c4csc5ccccc45)c4ccccc34)C(=O)NC2=O)c2ccccc21

IC50 (CDK2 (human)): 368 nM
SMILES: CCC(Nc1nc(NCc2ccc(C(F)(F)F)nc2)c2ncn(C(C)C)c2n1)C(O)C(F)(F)F (stereo unspecified)

IC50 (MAPK14 [4]): 242 nM
SMILES: COc1c(C(=O)N2CCC(Cc3ccc(F)cc3)CC2)ccc2[nH]c3c(c12)CCNC3

IC50 (EGFR [6]): > 10000 nM
SMILES: CN(C)CCCn1nc(C2=C(c3cn(-c4cnc5ccccc5c4)c4ccccc34)C(=O)NC2=O)c2ccccc21

IC50 (EGFR [7]): > 10000 nM
SMILES: O=C(Nc1cccc(C(F)(F)F)c1)Nc1ncnc2nn3ccccc3c12

ID50 (EGFR (mouse)): 1320 nM
SMILES: CC(C)[C@H]1C(=O)N[C@H](CO)Cc2c[nH]c3c(CCNC(=O)c4ccc(N=[N+]=[N-])cc4)ccc(c23)N1C

More lines, now with the values behind:

SMILES: CC(C)[C@H]1C(=O)N[C@H](CO)Cc2c[nH]c3cccc(c23)N1C
ID50 (EGFR (mouse)): 1110 nM

SMILES: COc1ccc2c(c1)CN[C@@H](C(=O)Nc1ccc(-c3cn[nH]c3)cc1OCCN(C)C)C2
IC50 (ROCK2 (human)): 261 nM

SMILES: C=CCN(/C=C1/C(=O)O[C@H](COC)[C@@]2(C)C1=C(O)C(=O)C1=C2[C@H](OC(C)=O)C[C@]2(C)C(=O)CC[C@H]12)CC=C
IC50 (PIK3CA (human)): 39 nM | IC50 (PIK3CD (Human)): 124 nM | IC50 (PIK3CG (human)): 198 nM | IC50 (PIK3CB (Human)): 88 nM

SMILES: COc1ccc2c(c1)c(/C=C1\Oc3cc(O)ccc3C1=O)c1n2CCNC1
IC50 (PIK3CG;PIK3CA (human)): 1510 nM

SMILES: O=C1C(O)=C(c2csc3ccccc23)C(=O)C(O)=C1c1ccccc1
activation (EGFR [2]): < 5%

SMILES: CCCCCCCCCCCC(=O)O[C@@H]1[C@@H](C)[C@@]2(O)[C@@H](C=C(CO)C[C@]3(O)C(=O)C(C)=C[C@@H]23)[C@@H]2C(C)(C)[C@]12OC(C)=O
ID50 (EGFR (mouse)): 1.33 nM

SMILES: Fc1ccc(-c2ncn(CCCN3CCOCC3)c2-c2ccccn2)cc1
IC50 (MAPK14 [3]): 64600 nM

SMILES: COc1ccc(C2=C(O)C(=O)C(c3ccccc3)=C(O)C2=O)cc1
activation (EGFR [2]): < 5%

SMILES: Cc1ccc(-n2nc(C(C)(C)C)cc2NC(=O)Nc2cc(C)c(OCCN3CCOCC3)c3ccccc23)cc1
Kd (MAPK14 [3]): 14 nM

SMILES: COC(=O)c1cc(NCc2cc(OC)ccc2OC)ccc1O
IC50 (EGFR (Hamster)): > 100000 nM

SMILES: CC[C@H](Nc1nc(NCc2cnc(C)cc2C)c2ncn(C(C)C)c2n1)[C@@H](C)O
IC50 (CDK2 (human)): 90 nM and 40 nM

SMILES: CN(C)c1cc2c(Nc3cccc(Br)c3)ncnc2cn1
IC50 (EGFR [5]): 0.006 nM

SMILES: O=C(c1ccc2[nH]c3c(c2c1)CCNC3)N1CCC(Cc2ccccc2)CC1
IC50 (MAPK14 [4]): 330 nM

SMILES: CC[C@@](C)(CCCC(C)(C)SCCNC(=O)c1ccc(N=[N+]=[N-])cc1)c1ccc2c3c(c[nH]c13)C[C@@H](CO)NC(=O)[C@H](C(C)C)N2C
ID50 (EGFR (mouse)): 4.4 nM

SMILES: CC[C@H](Nc1nc(NCc2ccc(C)nc2)c2ncn(C(C)C)c2n1)[C@@H](C)O
IC50 (CDK2 (human)): 3250 nM

SMILES: Cc1cccc2c(C3=C(O)C(=O)C(c4c[nH]c5ccccc45)=C(O)C3=O)c[nH]c12
EC50 (EGFR [2]): 25000 nM

SMILES: Nc1ccc2ncnc(Nc3cccc(Br)c3)c2n1
IC50 (EGFR [5]): 7.6 nM

SMILES: Nc1cc2c(Nc3cccc(Br)c3)ncnc2cn1
IC50 (EGFR [5]): 0.13 nM

SMILES: C=CCN(/C=C1/C(=O)O[C@H](COC)[C@@]2(C)C1=C(O)C(=O)C1=C2[C@H](OC(C)=O)C[C@]2(C)C(O)CC[C@H]12)CC=C (stereo partly specified)
IC50 (PIK3CA (human)): 14 nM | IC50 (PIK3CD (Human)): 131 nM | IC50 (PIK3CG (human)): 148 nM | IC50 (PIK3CB (Human)): 57 nM
